# Assays:
# Type in all cases: functional, cell-based
# Raji = experiment: Cytotoxicity against human Raji cells after 4 days by MTT assay; details: 96 h
# MDA-MB-231 = experiment: Cytotoxicity against human MDA-MB-231 cells after 4 days by MTT assay; details: MDA-MB-231, 96 h
# [1] = Cytotoxicity against human SKBR cells after 4 days by MTT assay; details: 96 h
# T47D = experiment: Cytotoxicity against human T47D cells after 4 days by MTT assay; details: 96 h
# A-375 = experiment: Cytotoxicity against human A375 cells after 4 days by MTT assay; details: A-375, 96 h
# MCF7 = experiment: Cytotoxicity against human MCF7 cells after 4 days by MTT assay; details: MCF7, 96 h
compound,measurement,setting,value
C/C1=C\CC(=O)/C=C/C=C\c2csc(n2)[C@@H](C)NC(=O)C[C@@](S)([C@@H](C)C(=O)O)CC1,EC50,Raji,> 10000 nM
same,EC50,MDA-MB-231,> 10000 nM
same,EC50,[1],> 10000 nM
same,EC50,T47D,> 10000 nM
same,EC50,A-375,> 10000 nM
same,EC50,MCF7,> 10000 nM
C/C1=C\CC(=O)/C=C/C=C\c2csc(n2)[C@@H](C)NC(=O)C[C@@]2(CC1)SC(=O)[C@@H]2C,EC50,Raji,> 10000 nM
same,EC50,MDA-MB-231,1950 nM
same,EC50,[1],7370 nM
same,EC50,T47D,> 10000 nM
same,EC50,A-375,> 10000 nM
same,EC50,MCF7,8560 nM
C/C1=C\CC(=O)/C=C/C=C\c2csc(n2)[C@@H](C)NC(=O)C[C@@]2(CC1)SSC(=O)[C@@H]2C,EC50,Raji,48.7 nM
same,EC50,MDA-MB-231,> 10000 nM
same,EC50,[1],> 10000 nM
same,EC50,T47D,> 10000 nM
same,EC50,A-375,> 10000 nM
same,EC50,MCF7,> 10000 nM
C/C1=C\CC(=O)/C=C/C=C\c2csc(n2)[C@@H](C)NC(=O)C[C@]2(CC1)[C@@H](C)C(=O)S[S+]2[O-] (stereo not given in full),EC50,Raji,8.21 nM
same,EC50,MDA-MB-231,71.4 nM
same,EC50,[1],251 nM
same,EC50,T47D,196 nM
same,EC50,A-375,12.5 nM
same,EC50,MCF7,275 nM
C/C1=C\[C@@H](O)C(=O)/C=C/C=C\c2csc(n2)[C@@H](C)NC(=O)C[C@@]2(CC1)[S+]([O-])SC(=O)[C@]2(C)O (stereo not given in full) [LEINAMYCIN],EC50,Raji,6.29 nM
same,EC50,MDA-MB-231,8.99 nM
same,EC50,[1],52.3 nM
same,EC50,T47D,15.2 nM
same,EC50,A-375,4.69 nM
same,EC50,MCF7,42.4 nM

# Reference: ChEMBL document CHEMBL3621171, “Synthesis and evaluation of 8,4'-dideshydroxy-leinamycin revealing new insights into the structure-activity relationship of the anticancer natural product leinamycin” (Bioorg Med Chem Lett, 2015)
